In ChEMBL document CHEMBL5303765, “Data for DCP probe BAY-7081” (2023):

Experiments:
[1] = target: Homeodomain-interacting protein kinase 2 (Homo sapiens) (UniProt Q9H2X6); assay: HIPK2 SGC Tm panel (DSF); settings: for ΔTm: Compound concentration 10.0 uM
[2] = target: T1, Dual specificity mitogen-activated protein kinase kinase 7 (Homo sapiens) (UniProt O14733); assay: MAP2K7 SGC Tm panel (DSF); settings: for ΔTm: Compound concentration 10.0 uM
T1 sequence (whole entry): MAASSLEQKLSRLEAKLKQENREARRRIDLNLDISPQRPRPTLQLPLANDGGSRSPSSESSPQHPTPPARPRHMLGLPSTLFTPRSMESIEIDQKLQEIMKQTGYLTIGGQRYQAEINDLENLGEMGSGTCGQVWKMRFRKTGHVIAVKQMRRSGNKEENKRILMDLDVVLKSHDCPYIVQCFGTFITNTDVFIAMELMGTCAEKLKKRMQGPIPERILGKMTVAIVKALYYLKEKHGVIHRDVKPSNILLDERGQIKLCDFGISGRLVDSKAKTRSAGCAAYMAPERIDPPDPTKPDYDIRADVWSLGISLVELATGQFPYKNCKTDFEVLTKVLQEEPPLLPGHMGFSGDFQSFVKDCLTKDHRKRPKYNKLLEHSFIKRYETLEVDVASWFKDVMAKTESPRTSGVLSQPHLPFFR

[3] = target: T2, Ribosyldihydronicotinamide dehydrogenase [quinone] (Homo sapiens) (UniProt P16083); assay: NQO2 SGC Tm panel (DSF); settings: for ΔTm: Compound concentration 10.0 uM
T2 sequence (whole entry): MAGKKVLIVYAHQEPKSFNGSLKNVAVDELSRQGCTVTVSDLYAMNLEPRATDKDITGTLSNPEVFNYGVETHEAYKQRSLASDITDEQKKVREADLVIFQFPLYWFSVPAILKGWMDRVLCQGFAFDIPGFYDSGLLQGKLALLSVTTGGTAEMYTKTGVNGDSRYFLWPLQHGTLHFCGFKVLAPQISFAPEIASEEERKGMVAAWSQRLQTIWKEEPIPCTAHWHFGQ

[4] = target: Serine/threonine-protein kinase PAK 4 (Homo sapiens) (UniProt O96013); assay: PAK4 SGC Tm panel (DSF); settings: for ΔTm: Compound concentration 10.0 uM
[5] = target: T3, Phosphorylase b kinase gamma catalytic chain, liver/testis isoform (Homo sapiens) (UniProt P15735); assay: PHKG2 SGC Tm panel (DSF); settings: for ΔTm: Compound concentration 10.0 uM
T3 sequence (whole entry): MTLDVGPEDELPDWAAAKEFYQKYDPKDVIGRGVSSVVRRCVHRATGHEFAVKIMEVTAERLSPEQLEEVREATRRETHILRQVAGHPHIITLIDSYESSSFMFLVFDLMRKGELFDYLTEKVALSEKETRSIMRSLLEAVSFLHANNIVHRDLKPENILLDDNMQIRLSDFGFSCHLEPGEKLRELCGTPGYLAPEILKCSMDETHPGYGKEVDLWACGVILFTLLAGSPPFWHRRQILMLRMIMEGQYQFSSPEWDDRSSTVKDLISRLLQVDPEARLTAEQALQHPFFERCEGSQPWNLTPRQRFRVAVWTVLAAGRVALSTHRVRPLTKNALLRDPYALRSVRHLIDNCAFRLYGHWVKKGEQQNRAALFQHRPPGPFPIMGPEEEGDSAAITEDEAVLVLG

[6] = target: Serine/threonine-protein kinase pim-3 (Homo sapiens) (UniProt Q86V86); assay: PIM3 SGC Tm panel (DSF); settings: for ΔTm: Compound concentration 10.0 uM
[7] = target: T4, Membrane-associated tyrosine- and threonine-specific cdc2-inhibitory kinase (Homo sapiens) (UniProt Q99640); assay: PKMYT1 SGC Tm panel (DSF); settings: for ΔTm: Compound concentration 10.0 uM
T4 sequence (whole entry): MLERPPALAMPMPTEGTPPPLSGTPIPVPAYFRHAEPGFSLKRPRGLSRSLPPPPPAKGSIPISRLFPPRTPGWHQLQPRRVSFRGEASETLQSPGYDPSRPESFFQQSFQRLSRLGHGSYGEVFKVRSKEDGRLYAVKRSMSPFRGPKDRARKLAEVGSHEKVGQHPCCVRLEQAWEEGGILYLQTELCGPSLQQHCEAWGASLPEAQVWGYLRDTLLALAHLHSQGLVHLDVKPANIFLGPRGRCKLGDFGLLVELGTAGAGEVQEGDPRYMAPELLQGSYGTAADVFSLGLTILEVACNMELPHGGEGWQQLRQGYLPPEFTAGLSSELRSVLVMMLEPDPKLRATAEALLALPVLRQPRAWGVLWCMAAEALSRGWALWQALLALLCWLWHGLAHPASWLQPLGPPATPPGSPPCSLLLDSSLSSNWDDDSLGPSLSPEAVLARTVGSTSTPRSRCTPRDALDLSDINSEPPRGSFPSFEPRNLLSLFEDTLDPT

[8] = target: Serine/threonine-protein kinase 10 (Homo sapiens) (UniProt O94804); assay: STK10 SGC Tm panel (DSF); settings: for ΔTm: Compound concentration 10.0 uM
[9] = target: T5, Serine/threonine-protein kinase VRK1 (Homo sapiens) (UniProt Q99986); assay: VRK1 SGC Tm panel (DSF); settings: for ΔTm: Compound concentration 10.0 uM
T5 sequence (whole entry): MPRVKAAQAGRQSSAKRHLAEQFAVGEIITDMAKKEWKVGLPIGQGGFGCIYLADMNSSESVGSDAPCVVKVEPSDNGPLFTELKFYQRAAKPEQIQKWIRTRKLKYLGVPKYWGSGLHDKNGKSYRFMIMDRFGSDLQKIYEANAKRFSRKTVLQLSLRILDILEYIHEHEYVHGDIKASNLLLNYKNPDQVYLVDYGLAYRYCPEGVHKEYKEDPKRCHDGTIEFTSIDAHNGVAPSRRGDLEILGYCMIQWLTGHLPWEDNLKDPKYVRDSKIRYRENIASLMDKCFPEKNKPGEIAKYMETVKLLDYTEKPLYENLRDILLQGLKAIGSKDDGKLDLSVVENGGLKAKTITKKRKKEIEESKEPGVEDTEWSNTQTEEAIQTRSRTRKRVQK

[10] = target: Histamine H4 receptor (Homo sapiens) (UniProt Q9H3N8); settings: Compound concentration 10.0 uM
[11] = target: T6, Muscarinic acetylcholine receptor M2 (Homo sapiens) (UniProt P08172); settings: Compound concentration 10.0 uM
T6 sequence (whole entry): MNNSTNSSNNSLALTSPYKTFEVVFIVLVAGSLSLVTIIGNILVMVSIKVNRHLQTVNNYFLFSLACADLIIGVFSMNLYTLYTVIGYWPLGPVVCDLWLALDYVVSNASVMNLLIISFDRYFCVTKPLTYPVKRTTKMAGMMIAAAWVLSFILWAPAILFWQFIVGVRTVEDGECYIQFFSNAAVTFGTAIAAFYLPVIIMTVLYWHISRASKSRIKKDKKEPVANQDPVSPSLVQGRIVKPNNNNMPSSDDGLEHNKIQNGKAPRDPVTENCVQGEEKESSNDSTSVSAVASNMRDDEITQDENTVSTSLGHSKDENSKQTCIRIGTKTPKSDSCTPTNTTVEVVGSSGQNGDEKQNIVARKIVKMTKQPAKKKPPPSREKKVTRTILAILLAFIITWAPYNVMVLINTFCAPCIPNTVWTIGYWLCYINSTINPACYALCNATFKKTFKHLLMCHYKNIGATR

Serine/threonine-protein kinase 10 (Homo sapiens), sequence (O94804 whole entry, looked up): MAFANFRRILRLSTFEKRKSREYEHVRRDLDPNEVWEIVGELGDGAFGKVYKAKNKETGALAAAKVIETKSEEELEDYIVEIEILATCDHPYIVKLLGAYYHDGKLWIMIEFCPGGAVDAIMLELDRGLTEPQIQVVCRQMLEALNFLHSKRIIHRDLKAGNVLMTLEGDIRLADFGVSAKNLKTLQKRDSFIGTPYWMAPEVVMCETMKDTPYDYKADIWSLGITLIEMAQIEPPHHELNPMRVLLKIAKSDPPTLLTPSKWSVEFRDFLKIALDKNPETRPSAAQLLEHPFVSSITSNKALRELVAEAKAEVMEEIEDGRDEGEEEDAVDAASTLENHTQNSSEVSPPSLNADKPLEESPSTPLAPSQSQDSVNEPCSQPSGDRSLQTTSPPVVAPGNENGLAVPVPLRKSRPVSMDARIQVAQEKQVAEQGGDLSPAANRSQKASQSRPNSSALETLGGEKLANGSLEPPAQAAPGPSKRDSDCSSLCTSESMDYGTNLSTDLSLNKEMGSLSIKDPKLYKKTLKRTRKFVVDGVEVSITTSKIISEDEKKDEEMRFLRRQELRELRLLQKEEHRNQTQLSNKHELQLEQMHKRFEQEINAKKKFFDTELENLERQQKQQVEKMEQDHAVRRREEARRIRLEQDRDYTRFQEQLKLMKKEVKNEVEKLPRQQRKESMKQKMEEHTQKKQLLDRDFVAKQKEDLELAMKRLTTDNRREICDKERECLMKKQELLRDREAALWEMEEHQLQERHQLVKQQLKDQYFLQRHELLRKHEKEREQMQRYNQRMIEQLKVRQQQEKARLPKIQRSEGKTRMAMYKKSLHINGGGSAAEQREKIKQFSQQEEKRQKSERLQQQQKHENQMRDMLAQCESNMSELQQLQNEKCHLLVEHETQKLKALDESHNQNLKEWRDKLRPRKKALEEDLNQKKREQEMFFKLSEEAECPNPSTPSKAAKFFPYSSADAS
Serine/threonine-protein kinase PAK 4 (Homo sapiens), sequence (O96013 whole entry, looked up, canonical isoform): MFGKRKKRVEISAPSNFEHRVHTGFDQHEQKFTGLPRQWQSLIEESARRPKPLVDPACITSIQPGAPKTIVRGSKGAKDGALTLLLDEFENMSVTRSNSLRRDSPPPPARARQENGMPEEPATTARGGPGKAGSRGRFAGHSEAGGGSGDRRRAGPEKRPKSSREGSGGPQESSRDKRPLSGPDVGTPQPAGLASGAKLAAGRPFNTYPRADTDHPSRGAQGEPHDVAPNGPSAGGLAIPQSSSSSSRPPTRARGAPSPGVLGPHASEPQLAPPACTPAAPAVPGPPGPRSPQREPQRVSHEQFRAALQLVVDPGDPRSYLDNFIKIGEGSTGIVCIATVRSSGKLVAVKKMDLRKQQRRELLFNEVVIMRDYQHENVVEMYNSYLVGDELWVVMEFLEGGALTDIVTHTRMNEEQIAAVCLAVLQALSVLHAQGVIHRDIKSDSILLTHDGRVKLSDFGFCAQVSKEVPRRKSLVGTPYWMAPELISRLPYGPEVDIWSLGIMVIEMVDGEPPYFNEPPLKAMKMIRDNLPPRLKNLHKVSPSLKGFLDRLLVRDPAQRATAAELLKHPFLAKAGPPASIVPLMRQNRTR
Histamine H4 receptor (Homo sapiens), sequence (Q9H3N8 whole entry): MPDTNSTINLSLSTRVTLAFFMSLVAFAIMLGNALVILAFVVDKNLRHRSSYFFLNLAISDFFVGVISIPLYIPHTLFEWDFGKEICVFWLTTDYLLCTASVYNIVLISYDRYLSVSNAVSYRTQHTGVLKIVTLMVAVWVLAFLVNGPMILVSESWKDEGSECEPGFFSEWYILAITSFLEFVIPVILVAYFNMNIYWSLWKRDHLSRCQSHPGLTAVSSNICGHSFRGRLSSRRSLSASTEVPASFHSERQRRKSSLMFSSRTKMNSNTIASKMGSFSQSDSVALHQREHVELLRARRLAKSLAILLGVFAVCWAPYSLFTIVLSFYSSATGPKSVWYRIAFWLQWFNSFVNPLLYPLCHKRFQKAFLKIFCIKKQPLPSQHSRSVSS
Homeodomain-interacting protein kinase 2 (Homo sapiens), sequence (Q9H2X6 whole entry, looked up): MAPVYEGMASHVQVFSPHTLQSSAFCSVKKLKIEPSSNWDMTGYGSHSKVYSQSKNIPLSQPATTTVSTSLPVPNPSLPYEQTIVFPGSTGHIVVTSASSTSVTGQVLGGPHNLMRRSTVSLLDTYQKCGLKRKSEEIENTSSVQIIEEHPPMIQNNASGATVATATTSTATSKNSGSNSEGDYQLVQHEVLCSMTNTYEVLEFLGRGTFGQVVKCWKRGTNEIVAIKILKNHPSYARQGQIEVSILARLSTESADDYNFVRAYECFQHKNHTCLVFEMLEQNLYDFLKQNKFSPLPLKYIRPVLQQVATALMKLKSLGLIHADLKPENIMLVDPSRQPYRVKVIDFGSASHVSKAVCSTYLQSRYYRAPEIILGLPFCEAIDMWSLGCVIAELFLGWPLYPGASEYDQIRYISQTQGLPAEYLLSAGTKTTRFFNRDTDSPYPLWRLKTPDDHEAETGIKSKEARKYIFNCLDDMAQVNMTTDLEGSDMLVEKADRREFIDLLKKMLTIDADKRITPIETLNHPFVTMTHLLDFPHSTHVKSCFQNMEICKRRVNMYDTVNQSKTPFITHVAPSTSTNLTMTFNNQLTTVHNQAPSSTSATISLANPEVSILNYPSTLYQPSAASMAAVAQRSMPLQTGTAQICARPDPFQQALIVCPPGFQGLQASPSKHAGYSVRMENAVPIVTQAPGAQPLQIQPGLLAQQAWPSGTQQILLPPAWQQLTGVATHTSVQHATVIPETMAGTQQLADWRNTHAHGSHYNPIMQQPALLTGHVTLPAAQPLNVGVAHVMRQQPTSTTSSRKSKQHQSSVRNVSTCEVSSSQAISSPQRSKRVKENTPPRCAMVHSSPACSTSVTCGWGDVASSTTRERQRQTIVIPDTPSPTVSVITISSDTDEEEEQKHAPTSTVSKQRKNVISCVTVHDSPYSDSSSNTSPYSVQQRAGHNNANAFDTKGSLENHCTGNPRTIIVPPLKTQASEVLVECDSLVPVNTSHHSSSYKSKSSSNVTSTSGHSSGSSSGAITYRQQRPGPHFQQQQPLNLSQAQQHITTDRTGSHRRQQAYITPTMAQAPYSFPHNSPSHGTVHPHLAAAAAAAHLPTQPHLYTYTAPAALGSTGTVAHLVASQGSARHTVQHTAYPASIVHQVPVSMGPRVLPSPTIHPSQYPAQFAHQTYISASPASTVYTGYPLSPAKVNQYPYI

Compound | delta Tm Staurosporine positive control [1] | ΔTm [1] | delta Tm Staurosporine positive control [2] | ΔTm [2] | delta Tm Staurosporine positive control [3] | ΔTm [3] | delta Tm Staurosporine positive control [4] | ΔTm [4] | delta Tm Staurosporine positive control [5] | ΔTm [5] | delta Tm Staurosporine positive control [6] | ΔTm [6] | delta Tm Staurosporine positive control [7] | ΔTm [7] | delta Tm Staurosporine positive control [8] | ΔTm [8] | delta Tm Staurosporine positive control [9] | ΔTm [9] | inhibition [10] | inhibition [11]
CCC[C@H]1CNCc2c1[nH]c(=O)c(C#N)c2N1CCC2(CC1)CC2 | 4.23 | -0.31 | 7.05 | -1.17 | -1.11 | -0.626 | 15.1 | 0.134 | 21.5 | -0.755 | 16.7 | -0.159 | 0.0474 | -0.47 | 22.2 | -2.2 | 2.35 | -0.355 | 14.2% | -1.19%
CCC[C@@H]1CNCc2c1[nH]c(=O)c(C#N)c2N1CCC2(CC1)CC2 | 4.23 | -0.297 | 7.05 | -1.17 | -1.11 | -0.613 | 15.1 | 0.121 | 21.5 | -0.827 | 16.7 | -0.32 | 0.0474 | -0.384 | 22.2 | -2.3 | 2.35 | -0.315 | -8.1% | 2.48%
